Activity calls are given as the source filed them. No cut-off for these calls is given here.
Assays:
[1] = Metabolic stability in human liver microsomes assessed as compound degradation at 10 uM measured after 30 mins by HPLC method; format: ADME, Microsome; conditions: read-out: Drug degradation
PC-3 [2] = assay: Antiproliferative activity against human PC3 cells assessed as inhibition of cell growth measured after 72 hrs by MTT assay; format: functional
[3] = Metabolic stability in human liver microsomes assessed as compound degradation at 10 uM measured after 15 mins by HPLC method; format: ADME, Microsome; conditions: read-out: Drug degradation
LAPC4 = assay: Antiproliferative activity against human LAPC4 cells assessed as inhibition of cell proliferation measured after 72 hrs by MTT assay; format: functional, cell-based
PC-3 [4] = assay: Antitumour activity against human PC-3 cells xenografted in chick chorioallantoic membrane assessed as inhibition of tumour growth at 10 ug, iv measured after 7 days; format: functional; conditions: dose 10 µg; time 7 day
DU-145 = assay: Antiproliferative activity against human DU-145 cells assessed as inhibition of cell proliferation measured after 72 hrs by MTT assay; format: functional, cell-based
LNCaP = assay: Antiproliferative activity against human LNCaP cells assessed as inhibition of cell proliferation measured after 72 hrs by MTT assay; format: functional, cell-based
RPTEC = assay: Cytotoxicity against human RPTEC cells assessed as inhibition of cell proliferation measured after 72 hrs by MTT assay; format: cell-based
OVCAR-3 [5] = assay: Antiproliferative activity against human OVCAR-3 cells assessed as inhibition of cell proliferation at 15 uM measured after 48 hrs by MTT assay; format: functional, cell-based
PANC-1 [6] = assay: Antiproliferative activity against human PANC-1 cells assessed as inhibition of cell proliferation at 15 uM measured after 48 hrs by MTT assay; format: functional, cell-based
PC-3 [7] = assay: Antiproliferative activity against human PC3 cells assessed as cellular metabolic activity at 15 uM measured after 48 hrs by MTT assay; format: functional
PC-3 [8] = assay: Antiproliferative activity against human PC3 cells assessed as inhibition of cell proliferation at 2 uM measured after 48 hrs by MTT assay; format: functional, cell-based
OVCAR-3 [9] = assay: Antiproliferative activity against human OVCAR-3 cells assessed as inhibition of cell proliferation at 2 uM measured after 48 hrs by MTT assay; format: functional, cell-based
PC-3 [10] = assay: Induction of apoptosis in human PC-3 cells assessed as increase in Caspase-3 activity using Z-Asp-Glu-Val-Asp-AMC peptide as substrate at 10 uM measured after 24 to 48 hrs by based flourimetric assay; format: functional, cell-based; conditions: time 24-48 hrs
PANC-1 [11] = assay: Antiproliferative activity against human PANC-1 cells assessed as inhibition of cell proliferation at 2 uM measured after 48 hrs by MTT assay; format: functional, cell-based
[12] = Toxicity in chick embryo assessed as embryo weight at 10 to 50 ug, iv measured after 7 days; format: organism-based, Gallus gallus; conditions: chicken, in vivo, 168 h, dose 10-50 µg, time 7 day
PC-3 [13] = assay: Antitumour activity against human PC-3 cells xenografted in chick chorioallantoic membrane assessed as inhibition of tumour growth at 50 ug, iv measured after 7 days; format: functional; conditions: dose 50 µg; time 7 day
PC-3 [14] = assay: Antiproliferative activity against human PC3 cells assessed as inhibition of cell proliferation at 15 uM measured after 48 hrs by MTT assay; format: functional, cell-based

| SMILES | metabolised at 0.5 h, 10 µM [1] [%] | GI50 (PC-3 [2]) [µM] | metabolised at 0.25 h, 10 µM [3] [%] | Activity (LAPC4) | TGI (PC-3 [4]) [%] | Activity (DU-145) | Activity (LNCaP) | Activity (RPTEC) | Activity (OVCAR-3 [5]) | Activity (PANC-1 [6]) | Activity (PC-3 [7]) [%] | Activity (PC-3 [8]) | Activity (OVCAR-3 [9]) | Activity (PC-3 [10]) | Activity (PANC-1 [11]) | Activity [12] | TGI (PC-3 [13]) [%] | Activity (PC-3 [14]) |
| --- | --- | --- | --- | --- | --- | --- | --- | --- | --- | --- | --- | --- | --- | --- | --- | --- | --- | --- |
| CC(C)C[C@@H]1Nc2ccc([N+](=O)[O-])cc2C(C(=O)NC(C)(C)C)N(Cc2ccc3c(c2)OCO3)C1=O (mixture of isomers) |  |  |  |  |  |  |  |  | Active | inactive |  | inactive | inactive |  | inactive |  |  | Active |
| CC(C)C[C@@H]1Nc2ccc([N+](=O)[O-])cc2C(C(=O)NC(C)(C)C)N(Cc2ccccc2)C1=O (mixture of isomers) |  |  |  |  |  |  |  |  | Active | inactive |  | inactive | inactive |  | inactive |  |  | Active |

Further lines, with some results ahead:

| metabolised at 0.5 h, 10 µM [1] [%] | GI50 (PC-3 [2]) [µM] | metabolised at 0.25 h, 10 µM [3] [%] | SMILES | Activity (LAPC4) | TGI (PC-3 [4]) [%] | Activity (DU-145) | Activity (LNCaP) | Activity (RPTEC) | Activity (OVCAR-3 [5]) | Activity (PANC-1 [6]) | Activity (PC-3 [7]) [%] | Activity (PC-3 [8]) | Activity (OVCAR-3 [9]) | Activity (PC-3 [10]) | Activity (PANC-1 [11]) | Activity [12] | TGI (PC-3 [13]) [%] | Activity (PC-3 [14]) |
| --- | --- | --- | --- | --- | --- | --- | --- | --- | --- | --- | --- | --- | --- | --- | --- | --- | --- | --- |
| 41 | 10.8 | 26 | CC(C)(C)NC(=O)[C@H]1c2cc([N+](=O)[O-])ccc2N[C@@H](Cc2ccccc2)C(=O)N1Cc1ccccc1 |  |  |  |  |  |  |  |  |  |  |  |  |  |  |  |
| 50 | 7 | 41 | CC(C)(C)NC(=O)[C@@H]1c2cc([N+](=O)[O-])ccc2N[C@@H](Cc2ccccc2)C(=O)N1Cc1ccccc1 |  |  |  |  |  |  |  |  |  |  |  |  |  |  |  |
|  | 10.2 |  | CC(C)(C)NC(=O)C1c2cc([N+](=O)[O-])ccc2N[C@@H](Cc2ccccc2)C(=O)N1Cc1ccccc1 (mixture of isomers) | inactive | 45 | inactive | inactive | Non-Toxic | Active | inactive | 30 | inactive | inactive | Active | inactive | Non-Toxic | 53 |  |

From ChEMBL document CHEMBL4834478, “Synthesis and biological evaluation of novel 1,4-benzodiazepin-3-one derivatives as potential antitumor agents against prostate cancer” (Bioorg Med Chem, 2021)
